Results on 53 molecules are retold here after patent US8815875B2 (Merck Sharp & Dohme Corp., priority 2008, dated 2014).

For orientation: Kd means a measure of binding affinity in units of concentration.

The structures appear in SMILES notation. Where only a bound is given, the exact number is not on record here.

This assay has as its target FABP4 (Homo sapiens, UniProt P15090). Description: TdF (Temperature Dependence Fluorescence) assay, thermal shift, FABP4. The class given is binding. From the text: TdF (Temperature Dependence Fluorescence) Assay for FABP3 and FABP4
The TdF assay was mainly conducted in the 96-well based CHROMO-4 real time fluorescence plate reader (BioRad). The Sypro Orange (Sigma-Aldrich), environmentally sensitive fluorescence dye, was used to monitor the protein folding-unfolding transition. Protein-ligand binding was gauged by the change (or shift) in the unfolding transition temperature (ΔTm) acquired at protein alone with respect to protein in the presence of ligand of interest.
The compound of interest was first prepared in DMSO stock (typical concentration: 10 mM). […] Final percentage of DMSO resided in the sample was 2%. The sample plate was heated from 30° C. to 90° C. with thermal ramping rate of 1° C./min. The fluorescence signals were acquired with excitation and emission wavelengths centered at 490 and 560 nm respectively. The instrument thermal stability was ±0.2° C.
Theoretical basis for TdF-based ligand binding affinity constant
In brief, the binding constant of the ligand at the Tm is expressed as below:
[formula] where To is the midpoint of unfolding for unliganded protein and Tm is the midpoint of unfolding in presence of ligand. [LTm] is free ligand at Tm. The ΔHu and ΔCpu are the enthalpy of unfolding and heat capacity change of unfolding for the protein respectively.
The nonlinear regression fitting in general readily reaches convergence by properly constraining the initial values for the fitting parameters (e.g. the initial “guess” for the ΔHu was constrained to 120 kcal/mol; initial Yn and mn were set to 1 and zero to best represent the melting curve along the low temperature region; negative slope of −0.5 was initially chosen for mu; initial Tm was also constrained to 50° C.).
[formula] (see Brandts et al and Mayhood et al, shown above) where ΔHL (T) is the van't Hoff enthalpy of ligand binding at temperature T and ΔCpL is the heat capacity upon ligand binding. For simplicity, the ΔCpL and ΔHL (T) were set to zero and −7 kcal/mol respectively. […] TdCD (Temperature-dependent Circular Dichroism) Assay for FABP3/4/5

Chain of FABP4 (P15090 whole entry, species assumed): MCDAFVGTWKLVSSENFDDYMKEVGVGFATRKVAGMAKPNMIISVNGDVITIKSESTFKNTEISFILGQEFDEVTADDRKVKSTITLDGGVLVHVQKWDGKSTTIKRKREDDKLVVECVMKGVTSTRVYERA

As to `CCc1ccc(OCc2cc(=O)n3nc(C4CCC4)nc3[nH]2)cc1` [8-6], the Kd was more than 500 nM.
The same measure, in the same setting: then `O=c1cc(COC2CCOCC2)[nH]c2nc(-c3ccccc3)nn12` [1-76], with more than 500 nM; and `COc1cc(CC(C)=O)ccc1OCc1cc(=O)n2nc(-c3ccccc3)nc2[nH]1` [1-72], with more than 500 nM; and `COc1ccccc1C1(NC(=O)C2(OCc3cc(=O)n4nc(-c5ccccc5)nc4[nH]3)CCCCC2)CC1` [48-13, N-(1-(2-methoxyphenyl)cyclopropyl)-1-((7-oxo-2-phenyl-4,7-dihydro-[1,2,4]triazolo[1,5-a]pyrimidin-5-yl)methoxy)cyclohexanecarboxamide], with not above 1 nM.
On to `O=C(NCC1CC1)c1ccccc1OCc1cc(=O)n2nc(-c3ccccc3)nc2[nH]1` [47-55], for which the “FABP4 TdF Kd” value is “B (0.5 ≦ B < 0.001 μM)”.
Turning to `O=C(NCC1(O)CCOCC1)c1c(Cl)cccc1OCc1cc(=O)n2nc(-c3ccccc3)nc2[nH]1` [47-25, 2-chloro-N-((4-hydroxytetrahydro-2H-pyran-4-yl)methyl)-6-((7-oxo-2-phenyl-4,7-dihydro-[1,2,4]triazolo[1,5-a]pyrimidin-5-yl)methoxy)benzamide], the “FABP4 TdF Kd” value is listed as “B (0.5 ≦ B < 0.001 μM)”.
As for `O=c1c(Cl)c(CN2CCCC2Cc2ccncn2)[nH]c2nc(-c3ccccc3)nn12` (centres unmarked) [24-6], the Kd was more than 500 nM.
With `Cn1nccc1NC(=O)c1c(Cl)cccc1OCc1cc(=O)n2nc(-c3ccccc3)nc2[nH]1` [47-2, 2-chloro-N-(1-methyl-1H-pyrazol-5-yl)-6-((7-oxo-2-phenyl-4,7-dihydro-[1,2,4]triazolo[1,5-a]pyrimidin-5-yl)methoxy)benzamide], the “FABP4 TdF Kd” value is listed as “B (0.5 ≦ B < 0.001 μM)”.
Turning to `O=C(NCC1(CO)CCC1)C1(OCc2cc(=O)n3nc(-c4ccccc4)nc3[nH]2)CCCCC1` [48-11], the Kd is not above 1 nM.
Regarding `CCc1ccc(OCc2cc(=O)n3nc(-c4ccccc4)nc3[nH]2)c(OC)c1` [1-69], the “FABP4 TdF Kd” value is “B (0.5 ≦ B < 0.001 μM)”.
As for `CN(Cc1cc(=O)n2nc(-c3ccccc3)nc2[nH]1)C1CCCCC1` [1-15], the Kd is more than 500 nM.
Regarding `O=C(NCC1(CO)COC1)c1c(Cl)cccc1OCc1cc(=O)n2nc(-c3ccccc3)nc2[nH]1` [47-34, 2-chloro-N-((3-(hydroxymethyl)oxetan-3-yl)methyl)-6-((7-oxo-2-phenyl-4,7-dihydro-[1,2,4]triazolo[1,5-a]pyrimidin-5-yl)methoxy)benzamide], the “FABP4 TdF Kd” value is recorded as “B (0.5 ≦ B < 0.001 μM)”.
On to `O=C(c1c(Cl)cccc1OCc1cc(=O)n2nc(-c3ccccc3)nc2[nH]1)N1CCS(=O)(=O)CC1` [47-6, 4-[2-chloro-6-[(4,7-dihydro-7-oxo-2-phenyl[1,2,4]triazolo[1,5-a]pyrimidin-5-yl)methoxy]benzoyl]thiomorpholine, 1,1-dioxide], for which the Kd was more than 500 nM.
On the same count and under the same terms, the same measure for `Cc1ccc(F)c2ccn(Cc3cc(=O)n4nc(-c5ccccc5)nc4[nH]3)c12` [1-141]: more than 500 nM; for `Cc1cc(OCc2cc(=O)n3nc(-c4ccccc4)nc3[nH]2)n(C)n1` [1-37]: more than 500 nM; for `CCc1ccc(OCc2cc(=O)n3nc(-c4ccncc4)nc3[nH]2)cc1` [8-10]: more than 500 nM.
For `O=c1cc(COc2ccccc2OC(F)(F)F)[nH]c2nc(-c3ccccc3)nn12` [1-18], the “FABP4 TdF Kd” value is reported as “B (0.5 ≦ B < 0.001 μM)”.
`O=C(N1CCS(=O)(=O)CC1)C1(OCc2cc(=O)n3nc(-c4ccccc4)nc3[nH]2)CCCCC1` [48-4, 4-[[1-[(4,7-dihydro-7-oxo-2-phenyl[1,2,4]triazolo[1,5-a]pyrimidin-5-yl)methoxy]cyclohexyl]carbonyl]thiomorpholine, 1,1-dioxide]: the dissociation constant (Kd) was more than 500 nM.
With `COc1cccc(C)c1OCc1cc(=O)n2nc(-c3ccccc3)nc2[nH]1` [1-58], the “FABP4 TdF Kd” value was “B (0.5 ≦ B < 0.001 μM)”.
Regarding `C=CCc1ccc(Cl)cc1OCc1cc(=O)n2nc(-c3ccccc3)nc2[nH]1` [42-4], the “FABP4 TdF Kd” value is given as “B (0.5 ≦ B < 0.001 μM)”.
Turning to `O=C(NCC1CC1)c1c(Cl)cccc1OCc1cc(=O)n2nc(-c3ccccc3)nc2[nH]1` [47-3], the “FABP4 TdF Kd” value is “B (0.5 ≦ B < 0.001 μM)”.
Regarding `O=c1cc(Cn2ccc3c(Cl)cccc32)[nH]c2nc(-c3ccccc3)nn12` [1-11], the “FABP4 TdF Kd” value is reported as “B (0.5 ≦ B < 0.001 μM)”.
Consider `O=c1cc(CN2CCC(Cc3ccccc3F)C2)[nH]c2nc(-c3ccccc3)nn12` (centres unmarked) [1-92], for which the Kd was more than 500 nM.
Consider `Cc1ccoc1-c1nc2[nH]c(COc3cccc(Cl)c3C)cc(=O)n2n1` [1-115], for which the Kd was more than 500 nM.
For `CC1(C)CN(C(=O)C2(OCc3cc(=O)n4nc(-c5ccccc5)nc4[nH]3)CCCCC2)CCO1` [48-25], the “FABP4 TdF Kd” value is given as “B (0.5 ≦ B < 0.001 μM)”.
For the molecule `O=C(Nc1c(Cl)cccc1OCc1cc(=O)n2nc(-c3ccccc3)nc2[nH]1)C1CCCC1` [49-4], the “FABP4 TdF Kd” value is “B (0.5 ≦ B < 0.001 μM)”.
As for `CCc1ccc(NCc2cc(=O)n3nc(C)nc3[nH]2)cc1` [5-7], the equilibrium dissociation constant (Kd) was more than 500 nM.
Turning to `Cc1cc(NC(=O)C2(OCc3cc(=O)n4nc(-c5ccccc5)nc4[nH]3)CCCCC2)n(C)n1` [48-35], the Kd was more than 500 nM.
As to `O=C(NCC1(c2ccc(Cl)cc2)CC1)C1CCCCC1OCc1cc(=O)n2nc(-c3ccccc3)nc2[nH]1` (centres unmarked) [48-76], the “FABP4 TdF Kd” value is “B (0.5 ≦ B < 0.001 μM)”.
With `CCc1ccc(OCc2[nH]c3nc(-c4ccccc4)nn3c(=O)c2C)cc1` [15-3], the equilibrium dissociation constant (Kd) was more than 500 nM.
In the case of `COC[C@H]1CCCN1C(=O)C1(OCc2cc(=O)n3nc(-c4ccccc4)nc3[nH]2)CCCCC1` [48-6, (R)-5-((1-(2-(methoxymethyl)pyrrolidine-1-carbonyl)cyclohexyloxy)methyl)-2-phenyl-[1,2,4]triazolo[1,5-a]pyrimidin-7(4H)-one], the “FABP4 TdF Kd” value is reported as “B (0.5 ≦ B < 0.001 μM)”.
On to `O=C(NC1(c2ccccc2F)CC1)C1(OCc2cc(=O)n3nc(-c4ccccc4)nc3[nH]2)CCCCC1` [48-48], for which the “FABP4 TdF Kd” value is “B (0.5 ≦ B < 0.001 μM)”.
For the molecule `O=c1cc(CN2CCCC2Cc2ccccn2)[nH]c2nc(-c3ccccc3)nn12` (centres unmarked) [1-139], the Kd is more than 500 nM.
In the case of `O=C(NCC1(CO)CCC1)c1c(Cl)cccc1OCc1cc(=O)n2nc(-c3ccccc3)nc2[nH]1` [47-30, 2-chloro-N-((1-(hydroxymethyl)cyclobutyl)methyl)-6-((7-oxo-2-phenyl-4,7-dihydro-[1,2,4]triazolo[1,5-a]pyrimidin-5-yl)methoxy)benzamide], the “FABP4 TdF Kd” value is reported as “B (0.5 ≦ B < 0.001 μM)”.
For the molecule `CN(C(=O)C1(OCc2cc(=O)n3nc(-c4ccccc4)nc3[nH]2)CCCCC1)C1CC1` [48-28], the “FABP4 TdF Kd” value is on record as “B (0.5 ≦ B < 0.001 μM)”.
Turning to `O=c1cc(COc2cccnc2Br)[nH]c2nc(-c3ccccc3)nn12` [1-148], the dissociation constant (Kd) was more than 500 nM.
Regarding `Cc1c(Cl)cccc1NCc1cc(=O)n2ncnc2[nH]1` [4-2], the Kd is more than 500 nM.
Turning to `O=c1cc(COc2cccc(Cl)c2[N+](=O)[O-])[nH]c2nc(-c3ccccc3)nn12` [1-134], the “FABP4 TdF Kd” value is given as “B (0.5 ≦ B < 0.001 μM)”.
As for `O=c1cc(COc2ccc(Br)c(Cl)c2)[nH]c2nc(-c3ccccc3)nn12` [1-8], the Kd is more than 500 nM.
On the same count and under the same terms, then `CC1(C)CCC(=O)N(Cc2cc(=O)n3nc(-c4ccccc4)nc3[nH]2)C1` [1-95], with more than 500 nM.
For `CC(=O)c1c(Cl)cccc1OCc1cc(=O)n2nc(-c3ccccc3)nc2[nH]1` [31-2], the “FABP4 TdF Kd” value is “B (0.5 ≦ B < 0.001 μM)”.
Regarding `Cc1ccccc1C1(NC(=O)C2(OCc3cc(=O)n4nc(-c5ccccc5)nc4[nH]3)CCCCC2)CC1` [48-50], the “FABP4 TdF Kd” value was “B (0.5 ≦ B < 0.001 μM)”.
With `COc1ccccc1C1(CNC(=O)C2(OCc3cc(=O)n4nc(-c5ccccc5)nc4[nH]3)CCCCC2)CCC1` [48-57], the “FABP4 TdF Kd” value is reported as “B (0.5 ≦ B < 0.001 μM)”.
Regarding `O=c1cc(CN2CCC(Cc3cccc(F)c3)C2)[nH]c2nc(-c3ccccc3)nn12` (centres unmarked) [1-89], the Kd is more than 500 nM.
On to `Cc1c(Cl)cccc1NCc1[nH]c2ncnn2c(=O)c1Cl` [13-2], for which the Kd was more than 500 nM.
Consider `Cc1cccc2c1OCCN2Cc1cc(=O)n2nc(-c3ccccc3)nc2[nH]1` [1-149], for which the “FABP4 TdF Kd” value is given as “B (0.5 ≦ B < 0.001 μM)”.
With `Cn1nc(C2CC2)cc1NC(=O)C1(OCc2cc(=O)n3nc(-c4ccccc4)nc3[nH]2)CCCCC1` [48-39], the “FABP4 TdF Kd” value was “B (0.5 ≦ B < 0.001 μM)”.
On to `O=c1cc(CN2CCCC2Cc2cccc(Cl)c2)[nH]c2nc(-c3ccccc3)nn12` (centres unmarked) [1-57], for which the “FABP4 TdF Kd” value is recorded as “B (0.5 ≦ B < 0.001 μM)”.
With `O=c1cc(CN2CCOc3ccccc32)[nH]c2nc(-c3ccccc3)nn12` [1-36], the Kd is more than 500 nM.
With `Cc1c(Cl)cccc1OC(C)c1cc(=O)n2nc(-c3ccccc3)nc2[nH]1` (single isomer, unassigned) [37-7], the “FABP4 TdF Kd” value is “B (0.5 ≦ B < 0.001 μM)”.
As to `O=c1cc(CN2CCn3c(Br)nnc3C2)[nH]c2nc(-c3ccccc3)nn12` [1-109], the Kd was more than 500 nM.
Consider `O=c1cc(COC2CCCCC2)[nH]c2nc(-c3ccccc3)nn12` [1-21], for which the “FABP4 TdF Kd” value is “B (0.5 ≦ B < 0.001 μM)”.
For the molecule `Cn1ccc(NC(=O)c2ccccc2OCc2cc(=O)n3nc(-c4ccccc4)nc3[nH]2)n1` [47-57], the Kd was more than 500 nM.
